Data reported in patent US20100021885A1, “REAGENT SETS AND GENE SIGNATURES FOR NON-GENOTOXIC HEPATOCARCINOGENICITY” (priority 2006, published 2010).
Where two headings read alike, the source gives them in different places.

Key:
[1] = tested on: livers from treated male Sprague-Dawley rats
Protocol: Briefly, in vivo short-term repeat dose rat studies were conducted on over 580 test compounds, including marketed and withdrawn drugs, environmental and industrial toxicants, and standard biochemical reagents. Rats (three per group) were dosed daily at either a low or high dose. […] Animals were necropsied on days 0.25, 1, 3, and 5 or 7. Up to 13 tissues (e.g., liver, kidney, heart, bone marrow, blood, spleen, brain, intestine, glandular and nonglandular stomach, lung, muscle, and gonads) were collected for histopathological evaluation and microarray expression profiling on the Amersham CodeLink™ RU1 platform (also referred to herein as “CodeLink Uniset™ Rat 1 Bioarray”). In addition, a clinical pathology panel consisting of 37 clinical chemistry and hematology parameters was generated from blood samples collected on days 3 and 5.
The remaining 21 NGTC chemicals and 26 NC chemicals were reserved for independent validation of the signature. Each chemical was evaluated in a short term repeat dose in vivo study in male Sprague-Dawley rats (n=3/group). The livers from treated and control rats were collected after 1, 3 and 5 days of dosing and RNA was extracted for gene expression profiling. Gene expression changes in treated animals were compared to suitably matched controls and represented as average log10 ratios for each treatment group. Since the development of tumors is a long term multi-step process, the 100 training set chemicals were profiled at the latest time point in order to capture gene expression changes that were likely to be reflective of repeat dose treatment effects that contribute to carcinogenicity and not reflective of an initial stimulus following a single dose that may be transient in nature.
Male Sprague-Dawley (Crl:CD®(SD)(IGS)BR) rats (weight matched, 7 to 8 weeks of age and averaging 200 to 250 g) were purchased from Charles River Laboratories (Portage, Mich.) and housed individually in hanging, stainless steel, wire-bottom cages in a temperature (66-77° F.), light (12-hour dark/light cycle) and humidity (30-70%) controlled room. […] Housing and treatment of the animals were in accordance with regulations outlined in the USDA Animal Welfare Act (9 CFR Parts 1, 2 and 3). Animals were assigned to groups such that mean body weights were within 10% of the mean vehicle control group. Test articles were administered either orally (10 ml of corn oil/kg body weight) or by intra-peritoneal injection (5 ml of saline/kg body weight), as indicated. Animals were dosed once daily starting on day 0, and necropsied 24 hrs after the last dose, as indicated. An equivalent number of time- and vehicle-matched control rats were treated concurrently.
Briefly, liver samples from 3 rats were chosen from each treatment and control group for gene expression analysis on the Codelink Uniset™ Rat 1 Bioarray (GE Healthcare Bio-Sciences Corp., Piscataway, N.J.). A complete list of probes on the array is provided on the Amersham Biosciences web site (www.amershambiosciences.com). Log transformed signal data for all probes were array-wise normalized used Array Qualifier (Novation Biosciences, Palo Alto, Calif.), a non-linear centralization normalization procedure adapted for the CodeLink microarray platform. Log10 ratios for each experimental group are computed as the difference between the average of the logs of the normalized experimental signals and the average of the logs of the normalized control signals for each gene.
where S is the scalar product and b is the bias term. Evaluation of S for a test experiment across the n genes in the signature determines what side of the hyperplane in m dimensional space the test experiment lies, and thus the result of the classification. Experiments with scalar products greater than 0 are considered positive for non-genotoxic hepatocarcinogenicity.

[2] = tested on: liver of rats; conditions: cited from earlier work
[3] = male, Sprague-Dawley, rat, in vivo
[4] = test chemicals, literature class NGTC or NC
[5] = literature-curated: induction of neoplastic lesions in the liver of rats, two year rodent bioassay results and/or class effect information
[6] = maximum of days 1, 3, 5, greater than zero = classified non-genotoxic hepatocarcinogen

## CC[C@H](C)C(=O)O[C@H]1C[C@@H](C)C=C2C=C[C@H](C)[C@H](CC[C@@H]3C[C@@H](O)CC(=O)O3)[C@H]21 [LOVASTATIN]
[1]; [3]
  Max (maximum scalar product observed over the multiple time points): 1.07
[2]; [4]
  Class: NGTC

## OC(Cn1cncn1)(Cn1cncn1)c1ccc(F)cc1F [FLUCONAZOLE]
[1]; [3]
  Max (maximum scalar product observed over the multiple time points): 3.63
[2]; [4]
  Class: NGTC

## Cc1ccnc2c1NC(=O)c1cccnc1N2C1CC1 [NEVIRAPINE]
[1]; [3]
  Max (maximum scalar product observed over the multiple time points): −0.38

## CCCC(C)C1(CC)C(=O)NC(=O)NC1=O (stereo not shown) [PENTOBARBITAL]
[2]; [5]
  Class: NGTC

## CC(C)(Oc1ccc(C2CCCc3ccccc32)cc1)C(=O)O (stereo not shown) [NAFENOPIN]
[2]; [5]
  Class: NGTC

## Cc1cccc(C)c1NC(=O)C(C)N (stereo not shown) [TOCAINIDE]
[1]; [3]
  Max (maximum scalar product observed over the multiple time points): −0.91

## C[C@]12C/C(=C/O)C(=O)C[C@@H]1CC[C@@H]1[C@@H]2CC[C@@]2(C)[C@H]1CC[C@]2(C)O [OXYMETHOLONE]
[1]; [6]
  Max (maximum scalar product observed over the multiple time points): −0.36

## CC(C)(Oc1ccc(CCNC(=O)c2ccc(Cl)cc2)cc1)C(=O)O [BEZAFIBRATE]
[1]; [3]
  Max (maximum scalar product observed over the multiple time points): 2.72
[2]; [4]
  Class: NGTC

## CC[C@H]1OC(=O)[C@H](C)[C@@H](O[C@H]2C[C@@](C)(OC)[C@@H](O)[C@H](C)O2)[C@H](C)[C@@H](O[C@@H]2O[C@H](C)C[C@H](N(C)C)[C@H]2O)[C@](C)(O)C[C@@H](C)C(=O)[C@H](C)[C@@H](O)[C@]1(C)O [ERYTHROMYCIN]
[1]; [3]
  Max (maximum scalar product observed over the multiple time points): −1.18

## C=CCc1ccc2c(c1)OCO2 [SAFROLE]
[2]; rat, in vivo
  Class: NGTC

## COc1ccc(C(CN(C)C)C2(O)CCCCC2)cc1 (stereo not shown) [VENLAFAXINE]
[1]; [6]
  Max (maximum scalar product observed over the multiple time points): −0.95

## C[C@]12CC[C@@H]3c4ccc(O)cc4CC[C@H]3[C@@H]1C[C@@H](O)[C@@H]2O [ESTRIOL]
[2]; rat, in vivo
  Class: NGTC

## COC(=O)Nc1nc2ccc(Sc3ccccc3)cc2[nH]1 [FENBENDAZOLE]
[1]; [6]
  Max (maximum scalar product observed over the multiple time points): 0.17
[2]; [4]
  Class: NGTC

## C[C@]12CC[C@@H]3c4ccc(OC(=O)c5ccccc5)cc4CC[C@H]3[C@@H]1CC[C@@H]2O [BETA-ESTRADIOL 3-BENZOATE]
[1]; Female, 37 gene signature, day 1
  Day 1 (scalar product): 0.81
[1]; Female, 37 gene signature, day 3
  Day 3 (scalar product): 0.25
[1]; Female, 37 gene signature, day 5
  Day 5 (scalar product): 0.03
[1]; Female, maximum of days 1, 3, 5
  Max (maximum scalar product): 0.81

## CN(C)CCCN1c2ccccc2CCc2ccc(Cl)cc21 [CLOMIPRAMINE]
[1]; [3]
  Max (maximum scalar product observed over the multiple time points): −1.46

## C=C(Cl)Cl [1,1-dichloroethene, reference compound]
[1]; 37 gene signature, maximum scalar product over days 1, 3 and 5, scalar product greater than zero = positive
  signature prediction for non-genotoxic hepatocarcinogenicity: negative
[1]; [6]
  Max (maximum scalar product observed over the multiple time points): −0.80

## c1ccc2c(c1)Nc1ccccc1S2 [PHENOTHIAZINE]
[1]; [6]
  Max (maximum scalar product observed over the multiple time points): 0.70

## O=C1Nc2ccc(Cl)cc2C(c2ccccc2Cl)=NC1O (stereo not shown) [LORAZEPAM]
[1]; [6]
  Max (maximum scalar product observed over the multiple time points): 0.10

## Clc1ccc2c(c1)C(N1CCNCC1)=Nc1ccccc1O2 [AMOXAPINE]
[1]; [3]
  Max (maximum scalar product observed over the multiple time points): −1.00

## CN(C)CCCC1(c2ccc(F)cc2)OCc2cc(C#N)ccc21 (stereo not shown) [CITALOPRAM]
[1]; [3]
  Max (maximum scalar product observed over the multiple time points): −0.28

## CCOC(=O)n1ccn(C)c1=S [CARBIMAZOLE]
[1]; [3]
  Max (maximum scalar product observed over the multiple time points): −0.38

## CC(C)(C)NC(=O)[C@H]1CC[C@H]2[C@@H]3CC[C@H]4NC(=O)C=C[C@]4(C)[C@H]3CC[C@]12C [FINASTERIDE]
[1]; [3]
  Max (maximum scalar product observed over the multiple time points): 0.22

## CC(C)=CCC/C(C)=C/CO [GERANIOL]
[1]; [6]
  Max (maximum scalar product observed over the multiple time points): −0.30

## Nc1ccn([C@@H]2O[C@H](CO)[C@@H](O)[C@@H]2O)c(=O)n1 [CYTARABINE]
[1]; [3]
  Max (maximum scalar product observed over the multiple time points): −0.71

## Cc1ccc(C)c(OCCCC(C)(C)C(=O)O)c1 [GEMFIBROZIL]
[2]; [5]
  Class: NGTC

## CCOC(=O)C(C)(C)Oc1ccc(Cl)cc1 [CLOFIBRATE]
[2]; [5]
  Class: NGTC

## CCN(CC)CCOc1ccc(C(=C(Cl)c2ccccc2)c2ccccc2)cc1 [CLOMIPHENE]
[1]; [3]
  Max (maximum scalar product observed over the multiple time points): −1.71

## CCO [ETHANOL]
[2]; [5]
  Class: NGTC

## CC(O)CO (stereo not shown) [propylene glycol, reference compound]
[1]; [3]
  Max (maximum scalar product observed over the multiple time points): −0.80
[1]; rat, in vivo
  signature prediction for non-genotoxic hepatocarcinogenicity: negative

## CC(=N)S [THIOACETAMIDE]
[2]; [5]
  Class: NGTC

## CC(NC(C)(C)C)C(=O)c1cccc(Cl)c1 (stereo not shown) [BUPROPION]
[2]; [5]
  Class: NGTC

## CN1C(=O)CN=C(c2ccccc2)c2cc(Cl)ccc21 [DIAZEPAM]
[1]; male, rat, in vivo
  Day 1 (scalar product): −1.40
  Day 3 (scalar product): −0.06
  Day 5 (scalar product): 0.52
  Max (maximum scalar product observed over the multiple time points): 0.52

## CN(C)[C@@H]1C(O)=C(C(N)=O)C(=O)[C@@]2(O)C(O)=C3C(=O)c4c(O)cccc4[C@@](C)(O)[C@H]3C[C@@H]12 [TETRACYCLINE]
[1]; male, rat, in vivo
  Day 1 (scalar product): −0.40
  Day 3 (scalar product): −1.18
  Day 5 (scalar product): −1.31
  Max (maximum scalar product observed over the multiple time points): −0.40

## Clc1cc2c(cc1Cl)Oc1cc(Cl)c(Cl)cc1O2 [2,3,7,8-TETRACHLORODIBENZO-P-DIOXIN]
[2]; [5]
  Class: NGTC

## CC(C)c1c(C(=O)Nc2ccccc2)c(-c2ccccc2)c(-c2ccc(F)cc2)n1CC[C@@H](O)C[C@@H](O)CC(=O)O [ATORVASTATIN]
[1]; [3]
  Max (maximum scalar product observed over the multiple time points): 1.85

## Cc1cccc(Nc2cc(Cl)nc(SCC(=O)O)n2)c1C [PIRINIXIC ACID]
[2]; [5]
  Class: NGTC

## CC(C)OC(=O)C(C)(C)Oc1ccc(C(=O)c2ccc(Cl)cc2)cc1 [FENOFIBRATE]
[2]; [5]
  Class: NGTC

## C=C1CC[C@H](O)C/C1=C/C=C1\CCC[C@]2(C)[C@@H]([C@H](C)CCCC(C)C)CC[C@@H]12 [CHOLECALCIFEROL]
[1]; [6]
  Max (maximum scalar product observed over the multiple time points): −1.38

## CCC1=C[C@@H]2CN(C1)Cc1c([nH]c3ccccc13)[C@@](C(=O)OC)(c1cc3c(cc1OC)N(C)[C@H]1[C@@](O)(C(=O)OC)[C@H](OC(C)=O)[C@]4(CC)C=CCN5CC[C@]31[C@@H]54)C2 [VINORELBINE]
[1]; [3]
  Max (maximum scalar product observed over the multiple time points): −1.37

## CC[C@H](C)C(=O)O[C@H]1C[C@H](O)C=C2C=C[C@H](C)[C@H](CC[C@@H](O)C[C@@H](O)CC(=O)O)[C@H]21 [PRAVASTATIN]
[2]; [5]
  Class: NGTC

## CC(C)(Oc1ccc(Cl)cc1)C(=O)O [CLOFIBRIC ACID]
[1]; [3]
  Max (maximum scalar product observed over the multiple time points): 0.86

## CC(=O)[C@H]1CC[C@H]2[C@@H]3CCC4=CC(=O)CC[C@]4(C)[C@H]3CC[C@]12C [PROGESTERONE]
[2]; [5]
  Class: NGTC

## C#C[C@]1(O)CC[C@H]2[C@@H]3CCc4cc(O)ccc4[C@H]3CC[C@@]21C [ETHINYLESTRADIOL]
[2]; [5]
  Class: NGTC

## aflatoxin B1
[2]; rat, in vivo
  Class: GTC

## OCCOCCN1CCN(C2=Nc3ccccc3Sc3ccccc32)CC1 [QUETIAPINE]
[1]; [3]
  Max (maximum scalar product observed over the multiple time points): −0.42

## CC(C)(C)CC(C)(C)c1ccc(OCCOCC[N+](C)(C)Cc2ccccc2)cc1 [BENZETHONIUM CHLORIDE]
[1]; male, rat, in vivo
  Day 1 (scalar product): −0.13
  Day 3 (scalar product): −1.34
  Day 5 (scalar product): −1.68
  Max (maximum scalar product observed over the multiple time points): −0.13

## CN(C)CCN(Cc1cccs1)c1ccccn1
[2]; [5]
  Class: NGTC

## C[C@]12CCC(=O)C=C1CC[C@@H]1[C@@H]2CC[C@@]2(C)[C@H]1CC[C@]2(C)O [17-METHYLTESTOSTERONE]
[2]; [5]
  Class: NGTC

## O=C(c1ccc(OCCN2CCCCC2)cc1)c1c(-c2ccc(O)cc2)sc2cc(O)ccc12 [RALOXIFENE, reference compound]
[1]; female, Sprague-Dawley, rat, in vivo
  Max (maximum scalar product): −0.66
[1]; female, Sprague-Dawley, rat, in vivo, 1 day
  Day 1 (scalar product): −0.66
[1]; female, Sprague-Dawley, rat, in vivo, 3 days
  Day 3 (scalar product): −1.25
[1]; female, Sprague-Dawley, rat, in vivo, 5 days
  Day 5 (scalar product): −2.11
